The source of these data is patent US10906915B2, “Substituted pyrazoloazepin-4-ones and their use as phosphodiesterase inhibitors” (LEO Pharma A/S, priority 2016, dated 2021).

Bounds are passed on as bounds.

One may read the IC50 as the concentration that gives 50% inhibition.

For the assay, the target named is human PDE4D catalytic domain (UniProt no. Q08499) (Homo sapiens (Human), UniProt Q08499). The assay can be described thus: PDE4 assay (TR-FRET, FAM-cAMP cleavage). It is filed as biochemical. The note with it: read-out: PDE4 IC50 range. The gist of the method: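 Read-out is time-resolved FRET from Tb donor to FAM-AMP captured on trivalent-metal nanoparticles added to stop the reaction. Substrate was a mix of plain and FAM-labelled cAMP, cleaved by human PDE4D catalytic domain ([…]) with titrated compound; IC50 ranges (nM) versus controls.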
Sequence of human PDE4D catalytic domain (Q08499 380-740 limits assumed): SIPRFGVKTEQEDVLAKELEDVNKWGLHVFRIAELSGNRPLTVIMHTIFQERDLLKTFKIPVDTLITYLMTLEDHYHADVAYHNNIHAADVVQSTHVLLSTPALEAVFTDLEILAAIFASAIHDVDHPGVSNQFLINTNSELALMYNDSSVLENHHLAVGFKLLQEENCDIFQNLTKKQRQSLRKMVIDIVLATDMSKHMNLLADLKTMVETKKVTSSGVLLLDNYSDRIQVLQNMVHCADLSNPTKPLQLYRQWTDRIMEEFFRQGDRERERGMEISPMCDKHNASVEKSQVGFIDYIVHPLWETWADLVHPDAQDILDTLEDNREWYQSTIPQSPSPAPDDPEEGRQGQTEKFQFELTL
With `CCc1nn(CC(C)(C)COC(=O)c2ccc(C(C)=O)cc2)c2c1C(=O)NCC1(CCOCC1)C2` [Example 295, [3-(3-ethyl-4-oxo-spiro[6,8-dihydro-5H-pyrazolo[4,3-c]azepine-7,4′-tetrahydropyran]-1-yl)-2,2-dimethyl-propyl] 4-acetylbenzoate], the IC50 was less than 100 nM.
To `CCc1nn(CC(C)(C)COC(=O)c2cccc(C(C)=O)c2)c2c1C(=O)NCC1(CCOCC1)C2` [Example 296, [3-(3-ethyl-4-oxo-spiro[6,8-dihydro-5H-pyrazolo[4,3-c]azepine-7,4′-tetrahydropyran]-1-yl)-2,2-dimethyl-propyl] 3-acetylbenzoate] belongs less than 100 nM; to `CCc1nn(CC(C)(C)COC(=O)c2ccc(C#N)c(F)c2)c2c1C(=O)NCC1(CCOCC1)C2` [Example 297, [3-(3-ethyl-4-oxo-spiro[6,8-dihydro-5H-pyrazolo[4,3-c]azepine-7,4′-tetrahydropyran]-1-yl)-2,2-dimethyl-propyl] 4-cyano-3-fluoro-benzoate], less than 100 nM.
On to `CCc1nn(CC(C)(C)COC(=O)c2ccc(C#N)cc2F)c2c1C(=O)NCC1(CCOCC1)C2` [Example 298, [3-(3-ethyl-4-oxo-spiro[6,8-dihydro-5H-pyrazolo[4,3-c]azepine-7,4′-tetrahydropyran]-1-yl)-2,2-dimethyl-propyl] 4-cyano-2-fluoro-benzoate], for which the IC50 was less than 100 nM.
`CCOc1cccc(C(=O)OCC(C)(C)Cn2nc(CC)c3c2CC2(CCOCC2)CNC3=O)c1` [Example 299, [3-(3-ethyl-4-oxo-spiro[6,8-dihydro-5H-pyrazolo[4,3-c]azepine-7,4′-tetrahydropyran]-1-yl)-2,2-dimethyl-propyl] 3-ethoxybenzoate]: the IC50 was less than 100 nM.
As to `CCc1nn(CC(C)(C)COC(=O)c2c(F)cccc2Cl)c2c1C(=O)NCC1(CCOCC1)C2` [Example 300, [3-(3-ethyl-4-oxo-spiro[6,8-dihydro-5H-pyrazolo[4,3-c]azepine-7,4′-tetrahydropyran]-1-yl)-2,2-dimethyl-propyl] 2-chloro-6-fluoro-benzoate], the IC50 was less than 100 nM.
As for `CCc1nn(CC(C)(C)COC(=O)c2ccc(F)cc2Cl)c2c1C(=O)NCC1(CCOCC1)C2` [Example 301, [3-(3-ethyl-4-oxo-spiro[6,8-dihydro-5H-pyrazolo[4,3-c]azepine-7,4′-tetrahydropyran]-1-yl)-2,2-dimethyl-propyl] 2-chloro-4-fluoro-benzoate], the IC50 is less than 100 nM.
`CCc1nn(CC(C)(C)COC(=O)c2cccc(C(F)(F)F)c2)c2c1C(=O)NCC1(CCOCC1)C2` [Example 302, [3-(3-ethyl-4-oxo-spiro[6,8-dihydro-5H-pyrazolo[4,3-c]azepine-7,4′-tetrahydropyran]-1-yl)-2,2-dimethyl-propyl] 3-(trifluoromethyl)benzoate]: the IC50 was less than 100 nM.
On to `CCc1nn(CC(C)(C)COC(=O)c2ccccc2C(F)(F)F)c2c1C(=O)NCC1(CCOCC1)C2` [Example 303, [3-(3-ethyl-4-oxo-spiro[6,8-dihydro-5H-pyrazolo[4,3-c]azepine-7,4′-tetrahydropyran]-1-yl)-2,2-dimethyl-propyl] 2-(trifluoromethyl)benzoate], for which the IC50 is less than 100 nM.
Consider `CCc1nn(CC(C)(C)COC(=O)c2ccc(C(F)(F)F)cc2)c2c1C(=O)NCC1(CCOCC1)C2` [Example 304, [3-(3-ethyl-4-oxo-spiro[6,8-dihydro-5H-pyrazolo[4,3-c]azepine-7,4′-tetrahydropyran]-1-yl)-2,2-dimethyl-propyl] 4-(trifluoromethyl)benzoate], for which the 50% inhibitory concentration (IC50) was less than 100 nM.
In the case of `CCc1nn(CC(C)(C)COC(=O)c2cccc(S(C)(=O)=O)c2)c2c1C(=O)NCC1(CCOCC1)C2` [Example 305, [3-(3-ethyl-4-oxo-spiro[6,8-dihydro-5H-pyrazolo[4,3-c]azepine-7,4′-tetrahydropyran]-1-yl)-2,2-dimethyl-propyl] 3-methylsulfonylbenzoate], the IC50 was less than 100 nM.
Turning to `CCc1nn(CC(C)(C)COC(=O)c2ccc(S(C)(=O)=O)cc2)c2c1C(=O)NCC1(CCOCC1)C2` [Example 306, [3-(3-ethyl-4-oxo-spiro[6,8-dihydro-5H-pyrazolo[4,3-c]azepine-7,4′-tetrahydropyran]-1-yl)-2,2-dimethyl-propyl] 4-methylsulfonylbenzoate], the IC50 is less than 100 nM.
For the compound `CCc1nn(CC(C)(C)COC(=O)c2ccccc2S(C)(=O)=O)c2c1C(=O)NCC1(CCOCC1)C2` [Example 307, [3-(3-ethyl-4-oxo-spiro[6,8-dihydro-5H-pyrazolo[4,3-c]azepine-7,4′-tetrahydropyran]-1-yl)-2,2-dimethyl-propyl] 2-methylsulfonylbenzoate], the IC50 is less than 100 nM.
As to `CCc1nn(CC(C)(C)COC(=O)c2cccc(S(N)(=O)=O)c2)c2c1C(=O)NCC1(CCOCC1)C2` [Example 308, [3-(3-ethyl-4-oxo-spiro[6,8-dihydro-5H-pyrazolo[4,3-c]azepine-7,4′-tetrahydropyran]-1-yl)-2,2-dimethyl-propyl] 3-sulfamoylbenzoate], the IC50 is less than 100 nM.
With `CCc1nn(CC(C)(C)COC(=O)c2ccc(S(N)(=O)=O)cc2)c2c1C(=O)NCC1(CCOCC1)C2` [Example 309, [3-(3-ethyl-4-oxo-spiro[6,8-dihydro-5H-pyrazolo[4,3-c]azepine-7,4′-tetrahydropyran]-1-yl)-2,2-dimethyl-propyl] 4-sulfamoylbenzoate], the IC50 is less than 100 nM.
With `CCc1nn(CC(C)(C)COC(=O)c2cc(F)cc(C(F)(F)F)c2)c2c1C(=O)NCC1(CCOCC1)C2` [Example 310, [3-(3-ethyl-4-oxo-spiro[6,8-dihydro-5H-pyrazolo[4,3-c]azepine-7,4′-tetrahydropyran]-1-yl)-2,2-dimethyl-propyl] 3-fluoro-5-(trifluoromethyl)benzoate], the IC50 is less than 100 nM.
Take `CCc1nn(CC(C)(C)COC(=O)c2cccc(S(=O)(=O)CC)c2)c2c1C(=O)NCC1(CCOCC1)C2` [Example 311, [3-(3-ethyl-4-oxo-spiro[6,8-dihydro-5H-pyrazolo[4,3-c]azepine-7,4′-tetrahydropyran]-1-yl)-2,2-dimethyl-propyl] 3-ethylsulfonylbenzoate]: the IC50 was less than 100 nM.
`CCc1nn(CC(C)(C)COC(=O)c2ccc(S(=O)(=O)CC)cc2)c2c1C(=O)NCC1(CCOCC1)C2` [Example 312, [3-(3-ethyl-4-oxo-spiro[6,8-dihydro-5H-pyrazolo[4,3-c]azepine-7,4′-tetrahydropyran]-1-yl)-2,2-dimethyl-propyl] 4-ethylsulfonylbenzoate]: the IC50 is less than 100 nM.
With `CCc1nn(CC(C)(C)COC(=O)c2cccc(S(=O)(=O)NC)c2)c2c1C(=O)NCC1(CCOCC1)C2` [Example 313, [3-(3-ethyl-4-oxo-spiro[6,8-dihydro-5H-pyrazolo[4,3-c]azepine-7,4′-tetrahydropyran]-1-yl)-2,2-dimethyl-propyl] 3-(methylsulfamoyl)benzoate] the figure was less than 100 nM; with `CCc1nn(CC(C)(C)COC(=O)c2ccc(Cl)c(C(F)(F)F)c2)c2c1C(=O)NCC1(CCOCC1)C2` [Example 314, [3-(3-ethyl-4-oxo-spiro[6,8-dihydro-5H-pyrazolo[4,3-c]azepine-7,4′-tetrahydropyran]-1-yl)-2,2-dimethyl-propyl] 4-chloro-3-(trifluoromethyl)benzoate], less than 100 nM.
For the compound `CCc1nn(CC(C)(C)COC(=O)c2cc(C(F)(F)F)ccc2Cl)c2c1C(=O)NCC1(CCOCC1)C2` [Example 315, [3-(3-ethyl-4-oxo-spiro[6,8-dihydro-5H-pyrazolo[4,3-c]azepine-7,4′-tetrahydropyran]-1-yl)-2,2-dimethyl-propyl] 2-chloro-5-(trifluoromethyl)benzoate], the IC50 was less than 100 nM.
With `CCc1nn(CC(C)(C)COC(=O)c2cccc(S(=O)(=O)C(C)C)c2)c2c1C(=O)NCC1(CCOCC1)C2` [Example 316, [3-(3-ethyl-4-oxo-spiro[6,8-dihydro-5H-pyrazolo[4,3-c]azepine-7,4′-tetrahydropyran]-1-yl)-2,2-dimethyl-propyl] 3-isopropylsulfonylbenzoate] the figure was less than 100 nM; with `CCc1nn(CC(C)(C)COC(=O)c2ccc(S(=O)(=O)C(C)C)cc2)c2c1C(=O)NCC1(CCOCC1)C2` [Example 317, [3-(3-ethyl-4-oxo-spiro[6,8-dihydro-5H-pyrazolo[4,3-c]azepine-7,4′-tetrahydropyran]-1-yl)-2,2-dimethyl-propyl] 4-isopropylsulfonylbenzoate], less than 100 nM; with `CCc1nn(CC(C)(C)COC(=O)c2ccc(S(=O)(=O)N(C)C)cc2)c2c1C(=O)NCC1(CCOCC1)C2` [Example 318, [3-(3-ethyl-4-oxo-spiro[6,8-dihydro-5H-pyrazolo[4,3-c]azepine-7,4′-tetrahydropyran]-1-yl)-2,2-dimethyl-propyl] 4-(dimethylsulfamoyl)benzoate], less than 100 nM.
For `CCc1nn(CC(C)(C)COC(=O)c2ccc(S(=O)(=O)C3CCCC3)cc2)c2c1C(=O)NCC1(CCOCC1)C2` [Example 319, [3-(3-ethyl-4-oxo-spiro[6,8-dihydro-5H-pyrazolo[4,3-c]azepine-7,4′-tetrahydropyran]-1-yl)-2,2-dimethyl-propyl] 4-cyclopentylsulfonylbenzoate], the IC50 was less than 100 nM.
Turning to `CCc1nn(CC(C)(C)COC(=O)c2cccc(S(=O)(=O)N3CCCC3)c2)c2c1C(=O)NCC1(CCOCC1)C2` [Example 320, [3-(3-ethyl-4-oxo-spiro[6,8-dihydro-5H-pyrazolo[4,3-c]azepine-7,4′-tetrahydropyran]-1-yl)-2,2-dimethyl-propyl] 3-pyrrolidin-1-ylsulfonylbenzoate], the half-maximal inhibitory concentration (IC50) is less than 100 nM.
In the case of `CCc1nn(CC(C)(C)COC(=O)c2ccc(S(=O)(=O)N3CCCC3)cc2)c2c1C(=O)NCC1(CCOCC1)C2` [Example 321, [3-(3-ethyl-4-oxo-spiro[6,8-dihydro-5H-pyrazolo[4,3-c]azepine-7,4′-tetrahydropyran]-1-yl)-2,2-dimethyl-propyl] 4-pyrrolidin-1-ylsulfonylbenzoate], the IC50 was less than 100 nM.
